Patent publication US20120131687A1 (priority 2008, published 2012)

Experiments:
[1] = molecular target: T1, cotton aphid seizure D2 (Aphis gossypii, UniProt A0A9P0IRJ5, DEL620-651/K982T, form not given); experiment: Electrophysiological analysis by two-electrode voltage clamp (TEVC) method using Xenopus laevis oocyte; assay type: cell-based; conditions: read-out: IC50 on cotton aphid seizure D2, protocol IV
Source text: Regarding four kinds of cotton aphid seizure splice variants (D1, D2, E1, E2), a gene optimal for producing a gene-recombinant nematode was selected by electrophysiological analysis by the two-electrode voltage clamp method (TEVC method) using an oocyte of Xenopus laevis.
In order to continuously maintain circulation and cleaning of water, female Xenopus laevis was reared in a water bath equipped with an air pump and a filtration device. For Xenopus laevis, a laboratory rearing line was purchased from NASCO (Fort Atkinson, Wis., USA), and adapted to a dry sample, and used in an experiment. Xenopus laevis was reared in tap water retained at a water temperature of 18° C., and a light/dark cycle of each 12 hours was artificially given. Xenopus laevis was anesthetized using a 2 g/l tolycaine aqueous solution, and subsequently cooled with an ice. […]
Using an amplifier TEC-03X manufactured by npi electronics (Tamm, Germany), and software Cellworks, an electrophysiological measurement was performed by the two-electrode voltage clamp method. Experimental data was recorded at room temperature (20 to 25° C.). […]
An activity of a compound was measured using protocol IV by the following procedure. […]
At each test concentration, an amplitude of a current waveform in last three times of continuous pulses was averaged, and a calculated current value was used for calculating an inhibition degree. […]

[2] = molecular target: nematode functionally expressing cotton aphid seizure (Aphis gossypii, UniProt A0A9P0IRJ5, DEL620-651/K982T, form not given); experiment: Feeding behavior activity (calcein AM intake) of recombinant nematode UG2346 functionally expressing cotton aphid seizure; assay type: in vivo; conditions: read-out: Activity to inhibit feeding behavior of nematode functionally expressing cotton aphid seizure (IC50), 0.03-100 μM
Procedure: In the pharynx of a gene-altered nematode, change in electric activity in cotton aphid seizure influences on an action of the pharynx, that is, intake of food. Therefore, the ability to change an activity of cotton aphid seizure can be measured as the ability to change intake of food, of the gene-recombinant nematode.
Intake of food of the nematode was measured by a method of adding a fluorescent dye precursor to a medium. Specifically, since the fluorescent dye precursor orally taken by the nematode is enzymatically converted into a fluorescent dye in the gut, and a fluorescent signal emitted by the gene-recombinant nematode is increased, intake of food of the nematode can be measured as a fluorescent signal emitted by the nematode.
For measuring the activity to change a feeding behavior activity of a nematode expressing cotton aphid seizure in a functional form, a fluorescent dye precursor was added to a liquid medium containing the nematode expressing cotton aphid seizure in a functional form, and intake of the fluorescent dye precursor orally ingested by the nematode was detected as a fluorescent signal emitted by the nematode. When intake of the fluorescent dye precursor was defined as a feeding behavior activity, an influence of a test substance on a feeding behavior activity was assessed as an influence, on an activity of cotton aphid seizure. […]

[3] = molecular target: T1, cotton aphid seizure D2; experiment: Electropharyngeogram of recombinant nematode UG2242 expressing cotton aphid seizure D2; assay type: in vivo
Procedure: By recording a electropharyngeogram using UG2242 which is a transient transformed line, and UG2346 which is a stable transformed line, it was confirmed that the introduced cotton aphid seizure gene was expressed in a functional form.
An imago of a nematode reared at 20° C. was prepared. Using Dent's saline (composition in mM; D-glucose 10 mM, HEPES 10 mM, NaCl 140 mM, KCl 6 mM, CaCl2 3 mM, MgCl2 1 mM, pH 7.4) containing 20 mM serotonin promoting pumping as a chamber internal solution, the nematode was placed into the chamber. Aspiration was performed until the Dent's saline which is a chamber internal solution was contacted with an electrode in a micropipette. After mild aspiration, a head of the nematode was inserted into a tip of a pipette for recording. Data was obtained with an amplifier (Multiclamp 700-A, Axon instruments) and an A/D converter (Digidata 1322A, Axon instruments).

[4] = molecular target: T1, cotton aphid seizure D2; experiment: Whole cell patch clamp method using CHO cell expressing cotton aphid seizure D2; assay type: cell-based; conditions: 30 μM clofilium
Procedure: Using a CHO cell expressing cotton aphid seizure D2, an activity of a voltage-gated potassium channel was measured by a whole cell patch clamp method.
According to a general tissue culturing procedure, pGBB036 produced in Example 5 was transiently introduced into the CHO cell. In order to confirm that gene introduction is successful, a GFP gene which is a fluorescent marker was simultaneously introduced into the CHO cell. A ratio of pGBB036 and the marker gene was 10:1. It was possible to simply identify the cell for which gene introduction was successful with an incident-light fluorescence microscope. After cultured for 24 hours, the gene-introduced cell was dispensed, frozen, and immediately cryopreserved at −150° C. On the day before implementation of an electrophysiological experiment, the cryopreserved cell was suspended in a fresh medium again, and the cell was seeded on a cover glass having a diameter of 12 mm which was spread in a petri dish. The petri dish was retained at a temperature of 37° C. under the condition of CO2 at a 5% concentration. […]
Recording by the whole cell patch clamp method was implemented on one CHO cell. […] Recorded signals were all amplified with an amplifier PC-501A manufactured by Warner Instruments (Hamden, Conn., USA) and, thereafter, was digitalized at 10 kHz. […]

[5] = test system: Aphis gossypii; experiment: Pesticidal activity test on artificial feed; assay type: in vivo; conditions: 50 ppm in artificial feed, six days, controlling value of 30% or more = active
Procedure: Then, according to the same manner as that of the method described in Handbook of Insect Rearing Vol. 1 (Elsevier Science Publishers 1985) pp. 35 to pp. 36 except that a test compound dissolved in DMSO to a final concentration of 50 ppm was added at 0.5% volume of the artificial feed, and components were mixed, Aphis gossypii was reared. […] Controlling value(%)={1−(Cb×Tai)/(Cai×Tb)}×100 Letters in the equation represent the following meanings. Cb: Number of surviving worms before treatment in non-treated section Cai: Number of surviving worms at observation in non-treated section Tb: Number of surviving worms before treatment in treated section Tai: Number of surviving worms at observation in treated section

[6] = test system: nematode; conditions: Drinking Assay, WO 01/88532; cited from earlier work

T1 sequence (A0A9P0IRJ5 entry or part of it DEL620-651/K982T, form open): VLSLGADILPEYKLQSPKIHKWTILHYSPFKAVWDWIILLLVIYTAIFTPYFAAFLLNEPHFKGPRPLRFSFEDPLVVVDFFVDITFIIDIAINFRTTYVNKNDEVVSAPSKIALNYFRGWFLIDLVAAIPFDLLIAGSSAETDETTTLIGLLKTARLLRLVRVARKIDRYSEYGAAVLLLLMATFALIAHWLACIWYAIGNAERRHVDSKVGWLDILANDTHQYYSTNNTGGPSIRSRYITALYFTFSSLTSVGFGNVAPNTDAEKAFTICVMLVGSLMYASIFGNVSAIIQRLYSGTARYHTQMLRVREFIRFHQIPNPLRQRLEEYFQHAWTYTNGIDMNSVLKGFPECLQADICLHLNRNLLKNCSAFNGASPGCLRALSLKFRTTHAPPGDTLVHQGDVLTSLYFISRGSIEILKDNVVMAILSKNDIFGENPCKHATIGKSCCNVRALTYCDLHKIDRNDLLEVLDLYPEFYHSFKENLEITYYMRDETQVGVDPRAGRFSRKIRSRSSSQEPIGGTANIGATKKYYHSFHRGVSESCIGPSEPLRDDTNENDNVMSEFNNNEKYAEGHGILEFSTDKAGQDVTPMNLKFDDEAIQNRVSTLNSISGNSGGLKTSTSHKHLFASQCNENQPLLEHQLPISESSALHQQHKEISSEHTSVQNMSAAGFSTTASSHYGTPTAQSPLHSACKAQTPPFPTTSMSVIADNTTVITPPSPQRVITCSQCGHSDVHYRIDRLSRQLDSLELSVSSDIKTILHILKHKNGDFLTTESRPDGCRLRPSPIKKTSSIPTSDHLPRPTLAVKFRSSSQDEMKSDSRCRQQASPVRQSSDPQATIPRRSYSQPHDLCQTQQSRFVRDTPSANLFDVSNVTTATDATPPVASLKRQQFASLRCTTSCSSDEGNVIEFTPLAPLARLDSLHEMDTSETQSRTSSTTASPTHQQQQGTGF
nematode functionally expressing cotton aphid seizure, sequence (A0A9P0IRJ5 entry or part of it DEL620-651/K982T, form open): as above

## CN(CCOc1ccc(NS(C)(=O)=O)cc1)CCc1ccc(NS(C)(=O)=O)cc1 [Dofetilide]
[1]
  IC50: ~23 µM

## CCCCCCC[N+](CC)(CC)CCCCc1ccc(Cl)cc1.Cc1ccc(S(=O)(=O)[O-])cc1 [clofilium]
[1]
  IC50: ~1 µM
[2]
  IC50: 4 µM
[3]; 5 μM treatment for 5 minutes
  length of a potential waveform in electropharyngeogram: significantly increased
[3]; 5 μM treatment, after 15 minutes
  potential waveform in electropharyngeogram: the same potential waveform as that of a wild-type
[4]
  activity of a channel inhibited relative to non-treatment: 86%
[5]
  Result of determination of insecticidal activity: Having insecticidal activity

## CN(C)CCCN1c2ccccc2CCc2ccc(Cl)cc21 [clomipramine]
[6]
  food intake by a nematode: increases food intake

## ivermectin
[6]
  food intake by a nematode: inhibits food intake
